# Assay results published in patent US20220087263A1, “HERBICIDE COMPOSITION AND APPLICATION THEREOF” (SHENYANG SINOCHEM AGROCHEMICALS R&D CO., LTD., priority 2018, published 2022).
# Values joined by “and” are separate entries in the source; they are usually repeats but may differ in a detail not shown here. Identical values can stand only once.
# Legend:
# piemarker = assay: Greenhouse test of weed control effect, combined action evaluated by Gowing method; format: in vivo; settings: single component
# Method: (§1) Embodiment 1 The synergistic effects of the compound contained with component A and component B is conducted in greenhouse in the present invention, and the component A takes A-3, A-4 and A-5 compounds in the compound table 1 of the general formula I as examples.
# (§2) The synergistic effects of the composition on the weeds is defined through greenhouse test.
# (§3) A weed culture method is: respectively planting weed seeds of piemarker and barnyard grass quantitatively in a paper cup with a diameter of 7 cm and containing nutrient soil; after planting, covering soil, pressing and watering; and then culturing in a greenhouse. The grass weeds grow to 5-7 leaf stages; the broadleaf weeds grow to 6-8 leaf stages; pre-emergence and post-emergence treatment are conducted with three times repeats. The weeds are placed in the greenhouse after treatment when the leaf without water dried naturally in air, and cultured with normal method. According to the inhibited condition or dying condition of the weeds, after treatment 30 days, visual inspection of the control effect is conducted (see Table 2-Table 7).
# (§4) A herbicide formulation preparing method: all test samples are technical dissolved by a mixed solvent of acetone and dimethylformyl (1:2, V/V) firstly; then 1‰ of Tween 80 water is used to prepare mother liquor of a certain concentration; and then processing solutions of different doses are prepared according to test schemes.
# (§5) The present invention adopts a Gowing method for evaluating the combined action of the proposed composition.
# (§6) X—the weed control effect when the dosage of the component A of the herbicide is P;
# (§7) Y—the weed control effect when the dosage of the component B of the herbicide is Q;
# (§8) E0—the theoretical control effect when the dosage of the component A of the herbicide is P+the theoretical control effect when the dosage of the component B of the herbicide is Q;
# (§9) E—the measured control effect after the component A of the herbicide and the component B of the herbicide are mixed in the above proportion.
# (§10) When E−E0>10%, the synergy is achieved; when E−E0<−10%, antagonism is achieved; when the value of E−E0 is between ±10%, the addition effect is achieved.
# barnyard grass = assay: as above; format: in vivo; settings: single component
# Method: as §1, §2, §3, §4, §5, §6, §7, §8, §9, §10
# [1] = dose 7.5 ga.i./hm^2, visual inspection 30 days after treatment
# [2] = dose 30 ga.i./hm^2, visual inspection 30 days after treatment
# [3] = dose 120 ga.i./hm^2, visual inspection 30 days after treatment
compound,measurement,setting,value
"c1cc[n+]2c(c1)-c1cccc[n+]1CC2 [Diquat, diquat]",Measured Value E (weed control effect),piemarker; [1],20% and 15% and 30%
same,Measured Value E (weed control effect),piemarker; [2],50% and 55% and 45%
same,Measured Value E (weed control effect),piemarker; [3],60% and 65% and 55%
same,Measured Value E (weed control effect),barnyard grass; [1],30% and 20%
same,Measured Value E (weed control effect),barnyard grass; [2],50% and 45% and 40%
same,Measured Value E (weed control effect),barnyard grass; [3],65% and 60% and 55%
